Measured values reported in ChEMBL document CHEMBL1143357, “Synthesis and biological activities of high affinity taxane-based fluorescent probes” (Bioorg Med Chem Lett, 2009).

Key:
[1] = Induction of assembly of GTP-tubulin into microtubules assessed as critical concentration
A2780 [2] = assay: Resistant factor, ratio of IC50 for p-glycoprotein expressing drug-resistant human A2780AD cells to IC50 for human A2780 cells; format: functional
A2780 [3] = details: Homo sapiens, A2780, 48 h
A2780 [4] = assay: cells; details: Homo sapiens, A2780, 48 h
Description: Cytotoxicity against human A2780 cells after 48 hrs by MTT assay

[5] = Displacement of non-fluorescent ligand from paclitaxel binding site of microtubule

SMILES | Activity [1] [µM] | Ratio IC50 (A2780 [2]) | IC50 (A2780 [3]) [nM] | IC50 (A2780 [4]) [nM] | Ka [5] [×10⁸ /M]
COc1cccc(C(=O)O[C@H]2[C@@H]3[C@]4(OC(C)=O)CO[C@@H]4C[C@H](OC(=O)[C@H](C)NC(=O)c4ccc(-c5c6cc(F)c(=O)cc-6oc6cc(O)c(F)cc56)c(C(=O)O)c4)[C@@]3(C)C(=O)[C@H](OC(C)=O)C3=C(C)[C@@H](OC(=O)[C@H](O)[C@@H](NC(=O)c4ccccc4)c4ccccc4)C[C@]2(O)C3(C)C)c1 | 2.17 | 26.4 | 7200 | 272 | –
C/C=C(\C)C(=O)N[C@@H](c1ccccc1)[C@@H](O)C(=O)O[C@H]1C[C@@]2(O)[C@@H](OC(=O)c3cccc(N=[N+]=[N-])c3)[C@@H]3[C@]4(OC(C)=O)CO[C@@H]4C[C@H](OC(=O)[C@H](C)NC(=O)c4ccc(-c5c6ccc(=O)cc-6oc6cc(O)ccc56)c(C(=O)O)c4)[C@@]3(C)C(=O)[C@H](OC(C)=O)C(=C1C)C2(C)C | 2.45 | >91 | > 20000 | 220 | –
COc1cccc(C(=O)O[C@H]2[C@@H]3[C@]4(OC(C)=O)CO[C@@H]4C[C@H](OC(=O)[C@H](C)NC(=O)c4ccc(-c5c6ccc(=O)cc-6oc6cc(O)ccc56)c(C(=O)O)c4)[C@@]3(C)C(=O)[C@H](OC(C)=O)C3=C(C)[C@@H](OC(=O)[C@H](O)[C@@H](NC(=O)c4ccccc4)c4ccccc4)C[C@]2(O)C3(C)C)c1 | 2.26 | 36.7 | 716 | 19.5 | –
C/C(=C\c1csc(C)n1)[C@@H]1C[C@@H]2O[C@]2(C)CCC[C@H](C)[C@H](O)[C@@H](C)C(=O)C(C)(C)[C@@H](O)CC(=O)O1 | – | – | – | – | 7.5
CC(=O)O[C@@]12CO[C@@H]1C[C@H](O)[C@@]1(C)C(=O)[C@H](O)C3=C(C)[C@@H](OC(=O)[C@H](O)[C@@H](NC(=O)OC(C)(C)C)c4ccccc4)C[C@@](O)([C@@H](OC(=O)c4ccccc4)[C@H]21)C3(C)C.O.O.O [DOCETAXEL] | 2.5 | 483 | 290 | 0.6 | –
CC(=O)O[C@H]1C(=O)[C@]2(C)[C@@H](OC(=O)[C@H](C)NC(=O)c3ccc(-c4c5ccc(=O)cc-5oc5cc(O)ccc45)c(C(=O)O)c3)C[C@H]3OC[C@@]3(OC(C)=O)[C@H]2[C@H](OC(=O)c2ccccc2)[C@]2(O)C[C@H](OC(=O)[C@H](O)[C@@H](NC(=O)c3ccccc3)c3ccccc3)C(C)=C1C2(C)C [FLUTAX 1] | 3.84 | >78 | > 20000 | 256 | –
CC(=O)O[C@H]1C(=O)[C@]2(C)[C@@H](OC(=O)[C@H](C)NC(=O)c3ccc(-c4c5cc(F)c(=O)cc-5oc5cc(O)c(F)cc45)c(C(=O)O)c3)C[C@H]3OC[C@@]3(OC(C)=O)[C@H]2[C@H](OC(=O)c2ccccc2)[C@]2(O)C[C@H](OC(=O)[C@H](O)[C@@H](NC(=O)c3ccccc3)c3ccccc3)C(C)=C1C2(C)C [FLUTAX 2] | 3.22 | >25 | > 20000 | 800 | –
CC(=O)O[C@H]1C(=O)[C@@]2(C)[C@H]([C@H](OC(=O)c3ccccc3)[C@]3(O)C[C@H](OC(=O)[C@H](O)[C@@H](NC(=O)c4ccccc4)c4ccccc4)C(C)=C1C3(C)C)[C@]1(OC(C)=O)CO[C@@H]1C[C@@H]2O [PACLITAXEL] | 4.23 | – | – | 1.3 | –
